For 8 molecules, MIC and melting point results are on record in patent US9416144B2, “Benzoxazine oxazolidinone compound, preparation method and application thereof” (priority 2012, dated 2016).

In brackets after ≈: the same amount, converted by molar mass.

The subject of data set [1] is S.a. ATCC 29213 (standard strain of Staphylococcus aureus). Description: In vitro antibacterial activity on linezolid-resistant strains, MIC in MHB broth, 96-well plate. Format: cell-based. The settings on record: ATCC29213, 35° C. 20 hrs. As for the experimental part: (§1) The stock solution of the subject drugs in DMSO was 10 mg/mL. MHA (agar) and MHB (broth) were both prepared according to the manufacturer's requirements.
(§2) Double dilution of drugs: under aseptic operation, 12.8 μL of liquid drug was added into the first well of a 96-well plate, and then added 27.2 μL DMSO and mixed. The 2nd to 12nd wells were all added 20 μL DMSO. 20 μL was taken from the first well to the second well and mixed up. 20 μL was taken from the second well to the third well, which was repeated till the 11st well, from which was taken 20 μL and discarded. The 12nd well only had 20 μL of DMSO as the growth control. Then 180 μL of sterile water was added to each well and mixed up. The drug used as control was prepared by the same method.
(§3) The solutions with different concentrations of antibacterial drugs after the double dilution and DMSO were added into a sterile 96-well plate separately, 10 μL per well, ready for use.
(§4) Single colonies were picked from the MHA plates into 5 ml of sterile saline and mixed up.
(§5) Light transmittance was adjusted to 80% with a spectrophotometer. After being diluted by 1:200 with MHB, 90 μL of such bacteria liquid was added into each of the wells which already had 10 μL of the drug liquid, mixed up, and incubated in a regular biochemical incubator at 35° C. for 20 hrs before the results were read out. At this time, the drug concentration in the 1st to 12nd wells was 32, 16, 8, 4, 2, 1, 0.5, 0.25, 0.125, 0.0625, 0.03125, 0 μg/mL, respectively.
(§6) Two parallel groups were set up for the same diluted concentration of a drug.
(§7) 4) Results Reading and Judgment: Refer to the Standard Recommended by the CLSI, 2010 Edition.
(§8) The positive control group was LZ (linezolid, brand name Zyvox, approved by the FDA in 2000 to be firstly sold in the United States, which is the first and also the only one of oxazolidinone antibacterial drugs allowed to enter clinical application).

Data set [2] concerns LRSA, linezolid-resistant strain of Staphylococcus aureus (3 strains). The description is as above. The format is cell-based. The settings on record: LRSA (3 strains). The method, then:
as §1, §2, §3, §4, §5, §6, §7, §8

In data set [3] the test system is LRSE, linezolid-resistant strain of Staphylococcus epidermidis (1 strain). Described as above. The format is cell-based. The settings on record: LRSE (1 strain). The method, then:
as §1, §2, §3, §4, §5, §6, §7, §8

The test system of data set [4] is LREFL, linezolid-resistant strain of Enterococcus faecalis (3 strains). The data set is described as above. The note with it: LREFL (3 strains). The format is cell-based. As for the experimental part: as §1, §2, §3, §4, §5, §6, §7, §8
Data set [5] concerns LREFA, linezolid-resistant strain of Enterococcus faecium (3 strains). The description is as above. Format: cell-based. The settings on record: LREFA (3 strains). As for the experimental part: as §1, §2, §3, §4, §5, §6, §7, §8
Data set [6] has as its system Staphylococcus aureus resistant strains (6 strains). The data set can be described thus: In vitro antibacterial activity, MIC by agar double dilution method. Format: cell-based. The note with it: clinical isolates. The essentials: (§9)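 Clinical isolates from the Nanjing region, spotted at about 10^6 CFU/mL onto MIT agar containing drug at 64 down to 0.031 μg/mL in 2-fold steps. Plates incubated 16 hrs at 35° C.; MIC is the lowest concentration with no growth.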

For data set [7], the system named is Streptococcus pneumoniae resistant strains (4 strains). Described as above. The format is cell-based. The note with it: clinical isolates. Put shortly: as §9
In data set [8] the test system is Staphylococcus epidermidis sensitive strains (5 strains). The data set is described as above. Format: cell-based. The settings on record: clinical isolates. The essentials: as §9
Data set [9] concerns Staphylococcus aureus sensitive strains (5 strains). The data set is described as above. The format is cell-based. The settings on record: clinical isolates. Put shortly: as §9
The test system of another data set is Enterococcus (6 strains). Described as above. The format is cell-based. The note with it: clinical isolates, 35° C. 16 hrs. Put shortly:
as §9

The subject of data set [10] is Staphylococcus epidermidis resistant strains (5 strains). The data set is described as above. Format: cell-based. The note with it: clinical isolates. The essentials:
as §9

The term MIC denotes the smallest concentration in the dilution series that meets the test's criterion for growth inhibition. A higher MIC goes with weaker potency. In general, melting point refers to the temperature, or range, at which the solid turns liquid. For `C[C@@H](O)C(=O)c1ccc(-c2ccc3c(c2)OC[C@H]2[C@H](CO)OC(=O)N32)cn1` [Compound 1, (3R,3aS)-3-(hydroxylmethyl)-7-(6-((R)-2-hydroxylpropionyl)pyridin-3-yl)-3a,4-dihydrobenzo[b]oxazolo[3,4-d][1,4]oxazin-1(3H)-one], the melting point was in the range of 164 to 166 °C. In data set [1], this molecule yielded an MIC of 0.5 µg/mL (≈ 1.35 µM). The MIC in [2] came to 8 µg/mL (≈ 21.6 µM). The MIC in data set [3] was 4 µg/mL (≈ 10.8 µM). Besides, the MIC in data set [4] was 8 µg/mL (≈ 21.6 µM). The same molecule returned an MIC in data set [5] of 4 to 8 µg/mL (≈ 10.8 to 21.6 µM). Moreover, in data set [6], the MIC lay within 0.125 to 0.5 µg/mL (≈ 0.338 to 1.35 µM). Besides, in data set [7], the minimal inhibitory concentration (MIC) was in the range of 0.25 to 0.5 µg/mL (≈ 0.675 to 1.35 µM). This molecule also displayed a minimum inhibitory concentration (MIC) in [8] of 0.125 to 0.5 µg/mL (≈ 0.338 to 1.35 µM). Further, in data set [9], the MIC worked out at 0.25 µg/mL (≈ 0.675 µM). In the data set on Enterococcus (6 strains), this molecule returned an MIC of 1 µg/mL (≈ 2.7 µM). In [10], this molecule showed an MIC of 0.125 to 0.5 µg/mL (≈ 0.338 to 1.35 µM).

`O=C1O[C@@H](CO)[C@@H]2COc3cc(-c4ccc(Cn5cncn5)nc4)ccc3N12` [Compound 2, (3R,3aS)-7-(6-((1H-1,2,4-triazol-1-yl)methyl)pyridin-3-yl)-3-(hydroxylmethyl)-3a,4-dihydrobenzo[b]oxazolo[3,4-d][1,4]oxazin-1(3H)-one]: the minimum inhibitory concentration (MIC) was 0.5 µg/mL (≈ 1.32 µM) in [1]; 8 µg/mL (≈ 21.1 µM) in data set [2]; 4 µg/mL (≈ 10.5 µM) in data set [3]; 4 to 8 µg/mL (≈ 10.5 to 21.1 µM) in data set [4]; 4 to 8 µg/mL (≈ 10.5 to 21.1 µM) in data set [5]; 0.5 to 1 µg/mL (≈ 1.32 to 2.64 µM) in data set [6]. Further, the MIC in data set [7] was in the range of 0.5 to 2 µg/mL (≈ 1.32 to 5.27 µM); in data set [8] it was 0.5 to 1 µg/mL (≈ 1.32 to 2.64 µM); in [9] it was 0.5 to 1 µg/mL (≈ 1.32 to 2.64 µM); against Enterococcus (6 strains), 1 to 2 µg/mL (≈ 2.64 to 5.27 µM); in [10], 0.5 to 1 µg/mL (≈ 1.32 to 2.64 µM).

For `N#Cc1ccc(-c2ccc3c(c2)OC[C@H]2[C@H](CO)OC(=O)N32)cn1` [Compound 3, 5-((3R,3aS)-3-(hydroxylmethyl)-1-oxo-1,3,3a,4-tetrahydrobenzo[b]oxazolo[3,4-d][1,4]oxazin-7-yl)picolinonitrile], the MIC in data set [1] was 0.25 µg/mL (≈ 0.773 µM); in data set [2], 4 to 8 µg/mL (≈ 12.4 to 24.7 µM); in data set [3] it was 4 µg/mL (≈ 12.4 µM); in [4], 4 µg/mL (≈ 12.4 µM); in [5], 2 to 4 µg/mL (≈ 6.19 to 12.4 µM); in [6], 0.125 to 0.25 µg/mL (≈ 0.387 to 0.773 µM). For the same molecule, the MIC in [7] was 0.25 to 0.5 µg/mL (≈ 0.773 to 1.55 µM); in [8], 0.25 µg/mL (≈ 0.773 µM); in [9], 0.25 to 0.5 µg/mL (≈ 0.773 to 1.55 µM); against Enterococcus (6 strains), 1 µg/mL (≈ 3.09 µM); in data set [10], 0.125 to 0.25 µg/mL (≈ 0.387 to 0.773 µM).

On to `O=C1OCCN1c1ccc(-c2ccc3c(c2)OC[C@H]2[C@H](CO)OC(=O)N32)cn1` [Compound 5, (3R,3aS)-3-(hydroxylmethyl)-7-(6-(2-oxazolidino-3-yl)pyridin-3-yl)-3a,4-dihydrobenzo[b]oxazolo[3,4-d][1,4]oxazin-1(3H)-one], for which the minimal inhibitory concentration (MIC) in data set [1] was 0.5 µg/mL (≈ 1.3 µM); in data set [2] it was 4 µg/mL (≈ 10.4 µM); in [3], 2 µg/mL (≈ 5.22 µM); in [4], 4 to 8 µg/mL (≈ 10.4 to 20.9 µM); in [5], 4 to 8 µg/mL (≈ 10.4 to 20.9 µM); in data set [6], 0.5 to 1 µg/mL (≈ 1.3 to 2.61 µM). For the same molecule, the MIC is 0.5 to 1 µg/mL (≈ 1.3 to 2.61 µM) in data set [7]; 0.5 to 1 µg/mL (≈ 1.3 to 2.61 µM) in data set [8]; 0.5 to 1 µg/mL (≈ 1.3 to 2.61 µM) in [9]; 1 µg/mL (≈ 2.61 µM) against Enterococcus (6 strains); 0.5 to 1 µg/mL (≈ 1.3 to 2.61 µM) in data set [10].

As for `C[C@@H](O)C(O)c1ccc(-c2ccc3c(c2)OC[C@H]2[C@H](CO)OC(=O)N32)cn1` (stereo partly drawn) [Compound 18, (3R,3aS)-7-(6-((2R)-1,2-dihydroxylpropyl)pyridin-3-yl)-3-(hydroxylmethyl)-3a,4-dihydrobenzo[b]oxazolo[3,4-d][1,4]oxazin-1(3H)-one], the MIC is 0.5 µg/mL (≈ 1.34 µM) in data set [1]; 4 µg/mL (≈ 10.7 µM) in data set [2]; 4 µg/mL (≈ 10.7 µM) in data set [3]; 2 to 4 µg/mL (≈ 5.37 to 10.7 µM) in data set [4]; 2 to 4 µg/mL (≈ 5.37 to 10.7 µM) in data set [5]; 2 µg/mL (≈ 5.37 µM) in data set [6]. In addition, the MIC in data set [7] lay within 2 to 4 µg/mL (≈ 5.37 to 10.7 µM); in data set [8] it was 1 to 2 µg/mL (≈ 2.69 to 5.37 µM); in [9], 2 to 4 µg/mL (≈ 5.37 to 10.7 µM); in the data set with Enterococcus (6 strains) it was 4 to 8 µg/mL (≈ 10.7 to 21.5 µM); in data set [10], 1 to 2 µg/mL (≈ 2.69 to 5.37 µM).

With `CN1CCC[C@H]2CN(c3ccc(-c4ccc5c(c4)OC[C@H]4[C@H](CO)OC(=O)N54)cn3)C[C@H]21` [Compound 23, (3R,3aS)-3-(hydroxylmethyl)-7-(6-((4aS,7aS)-1-methylhexaydro-1H-pyrrolo[3,4-b]pyridin-6(2H)-yl)pyridin-3-yl)-3a,4-dihydrobenzo[b]oxazolo[3,4-d][1,4]oxazin-1(3H)-one], the melting point lay within 169 to 171 °C. This molecule also registered an MIC in [6] of 8 µg/mL (≈ 18.3 µM). In data set [7], this molecule yielded an MIC of 16 µg/mL (≈ 36.7 µM). For the same molecule, the MIC in data set [8] lay in the range of 4 to 8 µg/mL (≈ 9.16 to 18.3 µM). Besides, the MIC in [9] is 8 µg/mL (≈ 18.3 µM). The same molecule yielded a minimum inhibitory concentration (MIC) in the data set on Enterococcus (6 strains) of 16 µg/mL (≈ 36.7 µM). The MIC in data set [10] was 8 to 16 µg/mL (≈ 18.3 to 36.7 µM).

As to `O=C1O[C@@H](CO)[C@@H]2COc3cc(-c4ccc(N5C[C@@H]6CCCN[C@@H]6C5)nc4)ccc3N12` [Compound 32, (3R,3aS)-7-(6-((4aS,7aS)-hexahydro-1H-pyrrolo[3,4-b]pyridin-6(2H)-yl)pyridin-3-yl)-3-(hydroxylmethyl)-3a,4-dihydrobenzo[b]oxazolo[3,4-d][1,4]oxazin-1(3H)-one], the melting point was in the range of 210 to 212 °C. Moreover, in [6], the minimal inhibitory concentration (MIC) is 8 µg/mL (≈ 18.9 µM). In [7], this molecule registered an MIC of 8 to 16 µg/mL (≈ 18.9 to 37.9 µM). The MIC in data set [8] was in the range of 4 to 8 µg/mL (≈ 9.47 to 18.9 µM). This molecule returned an MIC in data set [9] of 4 to 8 µg/mL (≈ 9.47 to 18.9 µM). The same molecule returned an MIC against Enterococcus (6 strains) of 16 µg/mL (≈ 37.9 µM). In data set [10], the MIC fell in the range of 4 to 8 µg/mL (≈ 9.47 to 18.9 µM).

The molecule `N#Cc1ccc(-c2ccc3c(c2)OC[C@H]2[C@H](COC(=O)CCC(=O)O)OC(=O)N32)cn1` [Compound 34, 4-(((3R,3aS)-7-(6-cyanopyridin-3-yl)-1-oxo-1,3,3a,4-tetrahydrobenzo[b]oxazolo[3,4-d][1,4]oxazin-3-yl)methoxyl)-4-oxobutyric acid] yielded a melting point of 313 to 315 °C. In data set [1], this molecule showed an MIC of 0.5 µg/mL (≈ 1.18 µM). In addition, in data set [2], the MIC was found to be 8 µg/mL (≈ 18.9 µM). The same molecule returned an MIC in data set [3] of 4 µg/mL (≈ 9.45 µM). Also, in data set [4], the MIC was determined as 4 µg/mL (≈ 9.45 µM). The molecule also registered an MIC in data set [5] of 4 µg/mL (≈ 9.45 µM).
